Assay results reported in US10021879B2, “Fumigant compositions and methods based on hexafluoropropylene oxide (HFPO)” (priority 2016, dated 2018).

Tests used:
[1] = tested on: Abutilon theophrasti Medik; experiment: Fumigant test on seed germination in soil, Abutilon theophrasti Medik; type: in vivo; conditions: for Abutilon theophrastic Medik (seeds germinated): 14 seeds in soil, 2 days exposure, counted after 10 days
Procedure: (§1) In particular, in 440 mL pressure vessels, fourteen seeds of Abutilon theophrasti Medik and fifteen seeds of Lolium multiflorum Lam were thoroughly mixed with 50 mL (approximately 30 grams) of soil and 6 ml of water. The filled vessels were kept at room temperature for 20-24 hours to allow the seeds to imbibe water before treatment. The vessels were sealed and evacuated, and then 80 ml, 160 ml and 440 ml, respectively, of gaseous HFPO was added. The vessels were thoroughly mixed and placed horizontally on the laboratory bench at ambient temperature for two days. The contents of each bottle were transferred to a plastic sterile Petri dish containing 7 mL of water. The Petri dishes were sealed with parafilm and incubated in the laboratory at ambient temperature. After 10 days, the number of germinated seeds was counted.

Lolium multiflorum Lam = experiment: Fumigant test on seed germination in soil, Lolium multiflorum Lam; type: in vivo; conditions: for Loliium multiflorum Lam (seeds germinated): 15 seeds in soil, 2 days exposure, counted after 10 days
Procedure: as §1

[2] = Volatility of aqueous fumigant compositions with and without surfactant (weight loss); type: physicochemical; conditions: 10 grams HFPO + 4.0 grams Tween 80 in 40.0 grams water vs. 10.0 grams HFPO in 40 grams water; 20° C., vent open, weight loss every 30 seconds; FIG. 1
Procedure: Experimentation was carried out to determine the volatility of aqueous fumigant compositions, both with and without inclusion of a surfactant. In each case, HFPO was placed in a chilled 500 ml Fischer Porter tube that was equipped with a vent to remove any gases. The vessel was cooled to 0° C. and was charged with varying amounts of water, HFPO and surfactant. The temperature was equilibrated to 20° C. and the reactor was placed on a balance. The vent tube was opened and the weight loss was recorded every 30 seconds.
In analyzing the effects of adding surfactant to an aqueous solution of HFPO, 10.0 grams of HFPO was added to 40 grams of water. In a separate experiment, 10 grams of HFPO and 4.0 grams of Tween™ 80 were added to 40.0 grams of water. FIG. 1 provides a graphical representation of the numerical data comparing the volatility of an aqueous solution of HFPO, both with and without inclusion of the Tween™ 80 nonionic surfactant.

[3] = 80 ml gaseous HFPO in 440 mL vessel
[4] = 160 ml gaseous HFPO in 440 mL vessel
[5] = 440 ml gaseous HFPO in 440 mL vessel

FC(F)(F)C1(F)OC1(F)F (stereo not drawn) [HFPO, 1,2-hexafluoropropylene oxide]
Abutilon theophrastic Medik (seeds germinated) [1, 3]: 0 seeds germinated | Abutilon theophrastic Medik (seeds germinated) [1, 4]: 0 seeds germinated | Abutilon theophrastic Medik (seeds germinated) [1, 5]: 0 seeds germinated | seed germination (in words) ([1]; seeds of the broadleaf species Abutilon theophrasti Medik): completely prevented seed germination | Loliium multiflorum Lam (seeds germinated) (Lolium multiflorum Lam; [3]): 0 seeds germinated | Loliium multiflorum Lam (seeds germinated) (Lolium multiflorum Lam; [4]): 0 seeds germinated | Loliium multiflorum Lam (seeds germinated) (Lolium multiflorum Lam; [5]): 0 seeds germinated | seed germination (in words) (Lolium multiflorum Lam; seeds of the grass weed species Lolium multiflorum Lam): completely prevented seed germination | retention of HFPO in aqueous solution (volatility) [2]: inclusion of the surfactant provides for longer retention of the HFPO in solution
